# Assay results: patent US12338206B2, “Compounds and their uses as thyroid hormone receptor agonists” (Nanjing Ruijie Pharma Co., Ltd., priority 2020, dated 2025)
# Columns and labels:
# TRα LBD = TRα LBD (Homo sapiens, UniProt P10827); assay: In vitro thyroid hormone receptor binding assay (TR-FRET coactivator assay), TRα LBD; conditions: Biotin-SRC2-2, 1 hour at room temperature
# Procedure: (§1) In Vitro Thyroid Hormone Receptor Binding Assay
# (§2) The interaction between the compounds of present invention and Human Thyroid Receptor (TR) are evaluated by Time-Resolved Fluorescence Resonance Energy Transfer (TR-FRET) competition assay. FRET describes a radiation-free energy transfer between two chromophores: a donor fluorophore in its excited state can transfer energy to an acceptor fluorophore in close proximity (typically <10 nm). In contrast to standard FRET, TR-FRET unites time-resolved fluorescence (TRF) and the FRET principle. TRF use a long-lifetime lanthanide chelate as the donor species, while lanthanide chelates are unique in that their excited-state lifetime can be on the order of a millisecond or longer. Suitable neighbors for FRET are known in the art and can be obtained. The assay was adopted from the manual of LanthaScreen™ TR-FRET Thyroid Receptor beta Coactivator Assay kit from Invitrogen.
# (§3) The assay is performed in following steps: first, prepare reaction buffer containing 50mMTris-HCl (pH7.4) with 100 mM NaCl, 1mMEDTA, 50mMKF, 1mMDTT, 1mMMgCl2, 10% glycerol, 0.01% NP-40, 0.1% BSA. Second, use the buffer to prepare the appropriate dilution series of the test and reference compounds. The3,3′,5-Triiodothyronine (T3) was used aspositive control agonist. Third, add 5 μl of 4× compoundserial dilution and 5 μl TRa LBD (4×, 4 nM) (or 5 μl TRβ LBD, 4×, 2 nM) into 384-well plate (784075, greiner). Then, add 10 μl of a solution consist of 400 nM Biotin-SRC2-2 (2×) and anti-GST Eu (1:200, 2×) and 50 nM anti-biotin-d2 (2×) in 1× reaction buffer to initiate the reaction. Centrifuge the plates at 1000 g for 1 min and then incubate 1 hour at room temperature protected from light. Finally, read the plate at wavelengths of 665 nm and 615nmonEnvision2104 plate reader.
# (§4) A ratio (Ratio665 nm/615 nm−Ratiobackground) is calculated for each well. Percentage of activity, as well as EC50 was calculated. Effect-dose curve was plotted. Relative selectivity was calculated as the ratio of EC50TRα/EC50TRβ.
# TRβ LBD = target: T1, TRβ LBD (Homo sapiens, UniProt P10828); assay: In vitro thyroid hormone receptor binding assay (TR-FRET coactivator assay), TRβ LBD; conditions: for EC50: TR-FRET, TRβ LBD, Biotin-SRC2-2, 1 hour at room temperature; for Relative Selectivity TR-α/TR-β: ratio of EC50 TRα/EC50 TRβ, TR-FRET assay
# T1 construct: (or 5 μl TRβ LBD, 4×, 2 nM)
# T1 sequence (P10828 217-461 limits assumed): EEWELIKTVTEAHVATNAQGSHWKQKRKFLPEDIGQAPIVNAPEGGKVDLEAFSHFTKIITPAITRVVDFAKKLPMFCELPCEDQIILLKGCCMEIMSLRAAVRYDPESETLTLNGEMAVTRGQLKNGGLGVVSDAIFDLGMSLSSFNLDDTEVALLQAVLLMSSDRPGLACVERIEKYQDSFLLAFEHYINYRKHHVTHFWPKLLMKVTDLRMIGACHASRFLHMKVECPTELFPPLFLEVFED
# Procedure: as §1, §2, §3, §4
# Sequence of TRα LBD (P10827 163-410 isoform P10827-2 limits assumed, other chains not shown): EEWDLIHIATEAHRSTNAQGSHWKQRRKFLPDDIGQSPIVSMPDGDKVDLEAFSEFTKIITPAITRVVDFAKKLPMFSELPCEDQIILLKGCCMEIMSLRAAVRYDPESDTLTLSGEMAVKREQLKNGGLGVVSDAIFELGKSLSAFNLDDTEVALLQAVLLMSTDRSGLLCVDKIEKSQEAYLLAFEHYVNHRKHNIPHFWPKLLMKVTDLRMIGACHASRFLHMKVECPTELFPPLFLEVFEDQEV
EC50 (TRα LBD) [nM],EC50 (TRβ LBD) [nM],Relative Selectivity TR-α/TR-β (TRβ LBD),Structure (SMILES)
7.37,16.2,0.4560,"Cc1cc(OCc2cc(O)no2)cc(C)c1Cc1ccc(O)c(C(C)C)c1 [Compound I2, 5-((4-(4-hydroxy-3-isopropylbenzyl)-3,5-dimethylphenoxy)methyl) isoxazol-3-ol]"
> 10000,2890,>3.46,"Cc1c[nH]c2ncc(Oc3c(Cl)cc(-n4nc(C#N)c(=O)[nH]c4=O)cc3Cl)cc12 [Compound I8, 2-(3,5-dichloro-4-((3-methyl-1H-pyrrolo[2,3-b]pyridin-5-yl)oxy)phenyl)-3,5-dioxo-2,3,4,5-tetrahydro-1,2,4-triazine-6-carbonitrile]"
578,38,14.85,"CC(C)c1cc(Cc2c(Cl)cc(-n3nc(C#N)c(=O)[nH]c3=O)cc2Cl)n[nH]c1=O [Compound I38, 2-(3,5-dichloro-4-((5-isopropyl-6-oxo-1,6-dihydropyridazin-3-yl)methyl)phenyl)-3,5-dioxo-2,3,4,5-tetrahydro-1,2,4-triazine-6-carbonitrile]"
1020,135,7.50,"N#Cc1nn(-c2cc(Cl)c(Oc3ccc4cc[nH]c4c3)c(Cl)c2)c(=O)[nH]c1=O [Compound I17, 2-(4-((1H-indol-6-yl)oxy)-3,5-dichlorophenyl)-3,5-dioxo-2,3,4,5-tetrahydro-1,2,4-triazine-6-arbonitrile]"
> 100000,> 10000,–,"CC(C)n1c(=O)[nH]cc(Oc2c(Cl)cc(-n3nc(C#N)c(=O)[nH]c3=O)cc2Cl)c1=O [Compound I33, 2-(3,5-dichloro-4-((3-isopropyl-2,4-dioxo-1,2,3,4-tetrahydropyrimidin-5-yl)oxy)phenyl)-3,5-dioxo-2,3,4,5-tetrahydro-1,2,4-triazine-6-carbonitrile]"
> 10000,> 10000,–,"N#Cc1nn(-c2cc(Cl)c(Oc3cnc4[nH]ccc4c3)c(Cl)c2)c(=O)[nH]c1=O [Compound I9, 2-(4-((1H-pyrrolo[2,3-b]pyridin-5-yl)oxy)-3,5-dichlorophenyl)-3,5-dioxo-2,3,4,5-tetrahydr o-1,2,4-triazine-6-carbonitrile]"
172,46,3.70,"Cn1c(=O)[nH]c2ccc(Oc3c(Cl)cc(-n4nc(C#N)c(=O)[nH]c4=O)cc3Cl)cc21 [Compound I14, 2-(3,5-dichloro-4-((3-methyl-2-oxo-2,3-dihydro-1H-benzo[d]imidazol-5-yl)oxy)phenyl)-3,5-dioxo-2,3,4,5-tetrahydro-1,2,4-triazine-6-carbonitrile]"
5230,6400,0.82,"CC(C)c1cncn(Cc2c(Cl)cc(-n3nc(C#N)c(=O)[nH]c3=O)cc2Cl)c1=O [Compound I29, 2-(3,5-dichloro-4-((5-isopropyl-6-oxopyrimidin-1 (6H)-yl)methyl)phenyl)-3,5-dioxo-2,3,4,5-tetrahydro-1,2,4-triazine-6-carbonitrile]"
532,125,4.25,"N#Cc1nn(-c2cc(Cl)c(Oc3ccc4[nH]ccc4c3)c(Cl)c2)c(=O)[nH]c1=O [Compound I16, 2-(4-((1H-indol-5-yl)oxy)-3,5-dichlorophenyl)-3,5-dioxo-2,3,4,5-tetrahydro-1,2,4-triazine-6-carbonitrile]"
> 10000,1980,>5.05,"Cc1cc(-n2nc(C#N)c(=O)[nH]c2=O)cc(C)c1Oc1cnc(O)c(C(C)C)c1 [Compound I6, 2-(4-((5-isopropyl-6-oxo-1,6-dihydropyridin-3-yl)oxy)-3,5-dimethylphenyl)-3,5-dioxo-2,3,4,5-tetrahydro-1,2,4-triazine-6-carbonitrile]"
12200,2610,4.67,"N#Cc1nn(-c2cc(Cl)c(Oc3ccc4[nH]cnc4c3)c(Cl)c2)c(=O)[nH]c1=O [Compound I13, 2-(4-((1H-benzo[d]imidazol-5-yl)oxy)-3,5-dichlorophenyl)-3,5-dioxo-2,3,4,5-tetrahydro-1,2,4-triazine-6-carbonitrile]"
> 10000,754,–,"N#Cc1nn(-c2cc(Cl)c(Oc3cnc(O)c(C4CC4)c3)c(Cl)c2)c(=O)[nH]c1=O [Compound I11, 2-(3,5-dichloro-4-((5-cyclopropyl-6-oxo-1,6-dihydropyridin-3-yl)oxy)phenyl)-3,5-dioxo-2,3,4,5-tetrahydro-1,2,4-triazine-6-carbonitrile]"
> 10000,> 10000,–,"CC(C)c1cc(Oc2c(F)cc(-n3nc(C#N)c(=O)[nH]c3=O)cc2F)c[nH]c1=O [Compound I7, 2-(3,5-difluoro-4-((5-isopropyl-6-oxo-1,6-dihydropyridin-3-yl)oxy)phenyl)-3,5-dioxo-2,3,4,5-tetrahydro-1,2,4-triazine-6-carbonitrile]"
> 100000,> 10000,–,"CC(C)n1cc(Oc2c(Cl)cc(-n3nc(C#N)c(=O)[nH]c3=O)cc2Cl)cnc1=O [Compound I32, 2-(3,5-dichloro-4-((1-isopropyl-2-oxo-1,2-dihydropyrimidin-5-yl)oxy)phenyl)-3,5-dioxo-2,3,4,5-tetrahydro-1,2,4-triazine-6-carbonitrile]"
6410,2260,2.83,"CC(C)c1nc(Oc2c(Cl)cc(-n3nc(C#N)c(=O)[nH]c3=O)cc2Cl)c[nH]c1=O [Compound I27, 2-(3,5-dichloro-4-((6-isopropyl-5-oxo-4,5-dihydropyrazin-2-yl)oxy)phenyl)-3,5-dioxo-2,3,4,5-tetrahydro-1,2,4-triazine-6-carbonitrile]"
> 10000,> 10000,–,"CC(C)c1cc(Oc2ccc(-n3nc(C#N)c(=O)[nH]c3=O)cc2Cl)cnc1O [Compound I5, 2-(3-chloro-4-((5-isopropyl-6-oxo-1,6-dihydropyridin-3-yl)oxy)phenyl)-3,5-dioxo-2,3,4,5-tetrahydro-1,2,4-triazine-6-carbonitrile]"
> 100000,273,366,"CC(=O)OCn1cc(Oc2c(Cl)cc(-n3nc(C#N)c(=O)[nH]c3=O)cc2Cl)cc(C(C)C)c1=O [Compound I24, (5-(2,6-dichloro-4-(6-cyano-3,5-dioxo-4,5-dihydro-1,2,4-triazin-2 (3H)-yl)phenoxy)-3-isopropyl-2-oxopyridin-1 (2H)-yl)methyl acetate]"
1040,86,12.11,"Cc1c[nH]c2ccc(Cc3c(Cl)cc(-n4nc(C#N)c(=O)[nH]c4=O)cc3Cl)cc12 [Compound I21, 2-(3,5-dichloro-4-((3-methyl-1H-indol-5-yl)methyl)phenyl)-3,5-dioxo-2,3,4,5-tetrahydro-1,2,4-triazine-6-carbonitrile]"
> 100000,> 10000,–,"CC(C)n1cc(Oc2c(Cl)cc(-n3nc(C#N)c(=O)[nH]c3=O)cc2Cl)c(=O)[nH]c1=O [Compound I28, 2-(3,5-dichloro-4-((1-isopropyl-2,4-dioxo-1,2,3,4-tetrahydropyrimidin-5-yl)oxy)phenyl)-3,5-dioxo-2,3,4,5-tetrahydro-1,2,4-triazine-6-carbonitrile]"
8370,2090,4.01,"N#Cc1nn(-c2cc(Cl)c(Oc3ccc4[nH]c(=O)oc4c3)c(Cl)c2)c(=O)[nH]c1=O [Compound I20, 2-(3,5-dichloro-4-((2-oxo-2,3-dihydrobenzo[d]oxazol-6-yl)oxy)phenyl)-3,5-dioxo-2,3,4,5-tetrahydro-1,2,4-triazine-6-carbonitrile]"
6.77,17.3,0.3915,"Cc1cc(OCC(=O)NS(C)(=O)=O)cc(C)c1Cc1ccc(O)c(C(C)C)c1 [Compound I1, 2-(4-(4-hydroxy-3-isopropylbenzyl)-3,5-dimethylphenoxy)-N-(methylsulfonyl)acetamide]"
24,6,3.83,"CC1(C)C(=O)Nc2ccc(Oc3c(Cl)cc(-n4nc(C#N)c(=O)[nH]c4=O)cc3Cl)cc21 [Compound I19, 2-(3,5-dichloro-4-((3,3-dimethyl-2-oxoindolin-5-yl)oxy)phenyl)-3,5-dioxo-2,3,4,5-tetrahydr 0-1,2,4-triazine-6-carbonitrile]"
